# Reference: ChEMBL document CHEMBL3507680, “University of Dundee, Gates Library screen for HepG2 cell viability”
# Assay: Human HepG2 cell viability assay in 384 well format
# Format: toxicity, cell-based
# Design: dose 125 nL, time 70.5 hour; concentration not given beside the values
# Details: HepG2 cells, read-out: Inhibition
row,Compound,cytotoxicity at 70.5 h
1,Cn1ncc2c(N3CCCC(C)(O)C3)nc(C(C)(C)C)nc21 (stereo not drawn),-7.72%
2,COc1ccc(S(=O)(=O)N2CCC(Cn3ccnc3)CC2)cc1,-6.35%
3,Cc1nnc([C@@]23CCO[C@@H]2CCN(S(=O)(=O)c2cccnc2)C3)o1,-5.15%
4,Cc1ccc(CC(=O)N2CCOC(c3ncc(CN(C)C)[nH]3)C2)s1 (stereo not drawn),-6.18%
5,NC(=O)N1CC2(CCNCC2)c2cc(Cl)ccc21,-0.465%
6,CCc1cc(N2C[C@H](C3CC3)[C@@H](N)C2)nc(N2CCCC2)n1,18.8%
7,COCCC(=O)N1CCC2(CN(Cc3ccc(OC)c(F)c3)C2)C1,-9.17%
8,CCCc1nnsc1C(=O)NCC(O)c1cccs1 (stereo not drawn),-6.4%
9,O=C(c1ccco1)N1C[C@@H]2CN(c3ccccn3)C[C@@H]2C1,-0.814%
10,Cc1c(C(C)N)cnn1-c1cccc2ccccc12 (stereo not drawn),-5.48%
11,O=S(=O)(NCc1ccccc1)N1CCN(c2ncccn2)CC1,-18.4%
12,Cc1cccc(CN2C(=O)CC[C@@H]3[C@H]2CCN3Cc2ccc(C)s2)n1,-18.1%
13,CC(Cn1ccnc1)NCc1ccc2nonc2c1 (stereo not drawn),-2.31%
14,COc1ccc(CCN2C(=O)O[C@@H]3CN(C4CCSCC4)C[C@@H]32)cc1,-6.37%
15,Cc1noc(C(C)NC(=O)[C@@H](C)NC(=O)OC(C)(C)C)n1 (stereo partly drawn),-3.59%
16,Cc1ccc(CN2C[C@H]3OC(=O)N(Cc4ccccn4)[C@H]3C2)o1,2.3%
17,Cn1cc(CN2CCCC3(CCN(c4nncs4)C3)C2)cn1 (stereo not drawn),-0.185%
18,Cc1noc(C2CCN(C(=O)Nc3ccc(N(C)C)nc3)CC2)n1,1.32%
19,COc1ncc(NC(=O)c2ccco2)c(OC)n1,7.73%
20,O=C(c1ccc[nH]1)N(Cc1ccc(O)cc1)CC1CC1,20.8%
21,Cc1cc(-c2cc(N)c(=O)n(CC(=O)NC3CCCC3)n2)c(C)o1,-1.96%
22,Cc1noc(C)c1CN1CCOCC12CCN(c1cnccn1)CC2,-6.5%
23,c1cc(N2CCC(CN3CCOCC3)CC2)c2sccc2n1,0.228%

row,Compound,cytotoxicity at 70.5 h
1,COc1ccc(C2=CCN(C(=O)CN(CC(N)=O)C(C)C)CC2)cc1,-4.3%
2,c1ccc(-c2nc(CNC3CCc4ncnn4C3)co2)cc1 (stereo not drawn),1.4%
3,CC(Cn1cccn1)NCc1ccc(OCc2ccncc2)cc1 (stereo not drawn),3.19%
4,CCC1c2ccsc2CCN1C(=O)NCc1ccnc(N(C)C)c1 (stereo not drawn),-9.44%
5,O=C(c1ccnnc1)N1CCN2C[C@H](Oc3cccc(F)c3)C[C@H]2C1,-5.78%
6,Cc1cc(=O)[nH]c(SC(C)C(=O)N2CCCN(C3CCCC3)CC2)n1 (stereo not drawn),6.46%
7,CCn1ncc2c1CN(C(=O)c1ccc3c(c1)OCO3)CC2COC (stereo not drawn),-1.24%
8,Cc1ccoc1C(=O)N1CCO[C@H]2[C@H](OCCN(C)C)CC[C@@H]21,-12.4%
9,O=C(C1COCCO1)N1CCN(Cc2ccc3c(c2)CCO3)CC1 (stereo not drawn),1.06%
10,CN(C)[C@@H]1CN(C(=O)Cc2ccc(F)cc2)[C@@H]2CCCO[C@H]12,18.3%
11,CC(C)N(C)C(=O)C1CCC(=O)N(CCc2cccc(F)c2)C1 (stereo not drawn),-3.96%
12,CC(CCN(C)C)NC(=O)c1cccc(C(F)(F)F)c1F (stereo not drawn),-1.47%
13,Cc1cc(C(=O)N2CCN(c3ncc4c(n3)CCOC4)CC2)sc1C,2.24%
14,Cc1cc(C(=O)N2CCc3nc(N4CCOCC4)nc(C)c3C2)c(C)o1,-6.78%
15,COc1ccccc1C(C)CNC(=O)c1c(C)nn(C)c1OC (stereo not drawn),-3.39%
16,CCc1nc(C)c(CN2CCN(c3ncnc4c(C)csc34)CC2)[nH]1,-14%
17,O=C(CCc1ccsc1)NCC1CCN(C2CC2)C1 (stereo not drawn),-7.4%
18,COCCn1ccc(NC(=O)Nc2ccc(C(N)=O)c(F)c2)n1,13.6%
19,Cc1ccc(CN(CCN(C)C)C(=O)Cc2cn3ccccc3n2)o1,-3.69%
20,COc1ccc(-c2nonc2N)cc1,-0.886%
21,Cc1nnc(SCCNC(=O)Cn2cnc3ccccc3c2=O)s1,-4.19%
22,Cc1cccc(CN2CCc3cc(C(=O)O)c(N(C)C)nc3CC2)n1,-5.66%
23,Cc1ncc(CNC(=O)Cc2ccsc2)c(C2CCCN2C)n1 (stereo not drawn),-5.12%

row,Compound,cytotoxicity at 70.5 h
1,O=C(C1CC=CC1)N1CCC2(CCN(Cc3cccc(F)c3)CC2)C1,-3.05%
2,c1ccc(CN(Cc2ncc[nH]2)Cc2nccs2)cc1,-14.7%
3,Fc1ccc(-c2nc(CN3CCCC3Cn3cncn3)co2)cc1 (stereo not drawn),17.6%
4,CCn1nc(CC(C)C)cc1C(=O)N1CC(c2ccncc2)C1,-4.86%
5,CC(C(=O)N1CCCCC1)N1CCN(c2nccs2)CC1 (stereo not drawn),2.12%
6,CCn1cnnc1CN(C)C(=O)C1CCC(=O)N(CC2CCCCC2)C1 (stereo not drawn),-6.42%
7,CC(C)(C)c1nnc(CN2CCOC(Cn3cccn3)C2)o1 (stereo not drawn),5.79%
8,CC(C)c1cc(NC(=O)CN2CCc3c(nc(C(C)C)n3C)C2)on1,-15%
9,Cc1cc(CN2C[C@@H]3CCCO[C@@H]3[C@H](Nc3ccccn3)C2)no1,-8.77%
10,CC(C)c1cc(O)nc(C2CCCN2C(=O)C2CC2)n1 (stereo not drawn),-1.44%
11,COc1ccccc1[C@@H]1CN(Cc2cc(C(C)(C)C)[nH]n2)C[C@H]1C(=O)O,-7.86%
12,Cn1cc(CNC(=O)NCCOc2ccc(F)c(F)c2)cn1,-0.0625%
13,CN1CCN(C(=O)c2occc2CN2C(=O)Cc3ccccc32)CC1,16%
14,Cc1nn(C)c(C)c1CNCc1ccnc(N2CCOCC2)c1,31.5%
15,Cc1noc(CN(Cc2ccc3c(c2)OCO3)Cc2ccc(C)o2)n1,-15.7%
16,O=C1C(Nc2nccn3cnnc23)CCN1c1cccc(Cl)c1 (stereo not drawn),-11.2%
17,CC(C)[C@@H](C)NC1CCN(c2ccc(-n3ccnc3)cc2)CC1,-12.5%
18,Cc1ccc(-c2nc(CNCC3CN(C)CCO3)cs2)o1 (stereo not drawn),18.6%
19,Cc1nc(CN(C)C(=O)C2CC(=O)N(c3cccc(O)c3)C2)cs1 (stereo not drawn),-2.8%
20,COc1ccnc(CNc2cc(C3CC3)ncn2)c1,-11.7%
21,Clc1ccc2cccnc2c1CN1CCCCC1Cn1cncn1 (stereo not drawn),-4.31%
22,CCS(=O)(=O)NC[C@]12COC[C@H]1CN(Cc1sccc1C)C2,-0.717%
23,CN(C(=O)C1CCOCC1)[C@@H]1CCC[C@@H](N2CCCC2)[C@@H]1O,-3.82%

row,Compound,cytotoxicity at 70.5 h
1,CCc1cc(NC2CCOCC2)n2nc(C)c(C)c2n1,-10.6%
2,CCc1nc(CN(C)C2CCN(CCC(=O)N3CCCCC3)C2)no1 (stereo not drawn),0.593%
3,O=C(Cn1ccc(=O)c2ccccc21)Nc1cnccc1O,8.04%
4,CCN(CC)C(=O)CN(C)C(=O)c1ccc(-c2ccsc2)nc1C,33.4%
5,CCCS(=O)(=O)N1Cc2ccnn2CC(c2nc(C)no2)C1 (stereo not drawn),-4.93%
6,COC(=O)N1CCCC(C(=O)N2CCCCC2)C1 (stereo not drawn),-4.53%
7,Cc1cc2ccncc2n1CC1(O)CCN(C(=O)c2cccnc2)CC1,-0.954%
8,COc1ccc(Br)c(NC(=O)NCc2cnn(C)c2)c1,-13.3%
9,Cc1noc(C)c1CNC(=O)NCCC(=O)N1CCCc2ccccc21,3.77%
10,COc1cccc(CN2CC[C@H](c3nnc(C)o3)C2)c1,2.22%
11,COC1(CNC(=O)CCCc2ccccc2)CCSC1 (stereo not drawn),-0.238%
12,CCc1ncc(C(=O)N(C)C(C)c2ccc3c(c2)OCCO3)cn1 (stereo not drawn),1.19%
13,Cc1cc(NC(=O)CCN2CCCC2Cn2cncn2)no1 (stereo not drawn),1.41%
14,O=S(=O)(NCCc1ccccc1F)N1CCOCC1,-3.51%
15,CN(CC(O)C1CC1)C(=O)c1ccc(-c2nc(C3CC3)n[nH]2)cc1 (stereo not drawn),-7.71%
16,CC(O)c1cccc(N2CCC3(CC2)Nc2ccccc2NC3=O)n1 (stereo not drawn),21.3%
17,COC(C)c1noc(CN(C)c2ncccn2)n1 (stereo not drawn),-1.92%
18,Cc1ncc(-c2ccnc(N3CC[C@H](O)C3)n2)c(-c2cccnc2)n1,-6.52%
19,CCN(CC)CCN1CCO[C@H]2[C@@H](OCc3ccccn3)CC[C@@H]21,-4.9%
20,Cc1ccc(CN(CCCN2CCOCC2)Cc2cnn(C)c2)o1,0.657%
21,O=C1C(Sc2nc(=O)ccn2C2CC2)CCN1c1ccccc1 (stereo not drawn),0.555%
22,O=C1NCCN(C(=O)CN2CCOC2=O)C1c1cccc(F)c1 (stereo not drawn),-18.2%
23,O=C1CC(N(C(=O)COc2ccc(F)cc2F)C2CC2)C(=O)N1 (stereo not drawn),-6.63%

row,Compound,cytotoxicity at 70.5 h
1,O=C(c1cccnc1)N(CCO)Cc1cc(Br)ccc1F,-3.63%
2,CNC(=O)C1CCCCN1C(=O)c1csc(-c2ccc(C)cc2)n1 (stereo not drawn),-9.54%
3,COCCN(C)CC1CCCN1S(=O)(=O)c1cccc(F)c1F (stereo not drawn),-4.32%
4,COc1ccc(Cl)cc1CN1CC(n2cccn2)C1,-4.9%
5,O=c1ccc(-c2ccccc2F)nn1CCN1CCCS1(=O)=O,-2.96%
6,CS(=O)(=O)N[C@@H]1CCO[C@]2(CCN(CC3CCOCC3)C2)C1,-5.05%
7,COc1ccc(-c2nc(C3(NC(=O)OC(C)(C)C)CCC3)no2)cn1,-3.79%
8,COc1ccc(-n2nnnc2C2(NCc3ccco3)CCCCC2)cc1,-9.96%
9,c1cncc(OCC2CN(Cc3nccs3)Cc3nccn3C2)c1 (stereo not drawn),-15.5%
10,CN1CCC(c2nnc3n2CCN(S(=O)(=O)c2ccccc2Cl)C3)CC1,-5.89%
11,COC(=O)NCCC(=O)NCC1(c2cccc(Cl)c2)CC1,-6.53%
12,Cc1cc(F)cc(S(=O)(=O)Nc2noc(C)n2)c1,-1.08%
13,COC(=O)CNC(=O)CSCc1nc(O)c2cc(C)sc2n1,4.84%
14,O=C(Cc1ccccn1)NCC1OCCc2cn(CC3CC3)nc21 (stereo not drawn),11.2%
15,Cc1nsc(N2CCCN(c3nc(C4CC4)ns3)CC2)n1,1.36%
16,COc1cc(C)nc(N2CCN(C(=O)c3ccc[nH]3)CC2)n1,-1.4%
17,Cn1c(=O)c2c(c3ccccc31)OC(C)(C)CC2,-9.34%
18,CCC(C)NC(=O)CS(=O)(=O)Cc1ccccc1Cl (stereo not drawn),-7.35%
19,Cn1ccnc1CN1CCO[C@H]2C(CNC(=O)c3ccco3)CC[C@@H]21 (stereo partly drawn),-0.67%
20,Cc1cnc(NCc2cnn(C)c2)nc1-c1cnn(C)c1,13.5%
21,Cc1c[nH]nc1C1CCCCN1C(=O)CC1(O)CCCCC1 (stereo not drawn),-8.79%
